Reference: the supplement of paper PMC10307832

Tests used:
Experiment in all cases: relative viability (nuclei count vs DMSO), 5 days (fraction); higher = more cells survive
Sunitinib + Bortezomib = compound: CCN(CC)CCNC(=O)c1c(C)[nH]c(/C=C2\C(=O)Nc3ccc(F)cc32)c1C [Sunitinib] + CC(C)C[C@H](NC(=O)[C@H](Cc1ccccc1)NC(=O)c1cnccn1)B(O)O [Bortezomib] (partner 0.002 µM)
Procedure, shortened: (§1)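 Lung cancer cell lines in 1536-well plates were dosed by pin tool the day after seeding, either with one drug alone or with a fixed anchor-drug dose plus five library-drug doses (not always all listed) in √10 steps. After 5 days, cells were fixed and their nuclei stained in one step (final 0.05% Triton X-100, 1% formaldehyde, 1 ug/ml Hoechst), then counted on 4× images. Relative viability is the nuclei count in treated wells divided by that in vehicle wells. Values are medians of duplicate plates.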

Sunitinib + Pictilisib = compound: CCN(CC)CCNC(=O)c1c(C)[nH]c(/C=C2\C(=O)Nc3ccc(F)cc32)c1C [Sunitinib] + CS(=O)(=O)N1CCN(Cc2cc3nc(-c4cccc5[nH]ncc45)nc(N4CCOCC4)c3s2)CC1 [Pictilisib] (partner 1 µM)
Procedure, shortened: as §1

Sunitinib + Foretinib = compound: CCN(CC)CCNC(=O)c1c(C)[nH]c(/C=C2\C(=O)Nc3ccc(F)cc32)c1C [Sunitinib] + COc1cc2c(Oc3ccc(NC(=O)C4(C(=O)Nc5ccc(F)cc5)CC4)cc3F)ccnc2cc1OCCCN1CCOCC1 [Foretinib] (partner 0.25 µM)
Procedure, shortened: as §1

Sunitinib + Palbociclib = compound: CCN(CC)CCNC(=O)c1c(C)[nH]c(/C=C2\C(=O)Nc3ccc(F)cc32)c1C [Sunitinib] + CC(=O)c1c(C)c2cnc(Nc3ccc(N4CCNCC4)cn3)nc2n(C2CCCC2)c1=O [Palbociclib] (partner 0.5 µM)
Procedure, shortened: as §1

Cell Line | relative viability (Sunitinib + Bortezomib; first compound 0.02 µM) | relative viability (Sunitinib + Bortezomib; first compound 0.06325 µM) | relative viability (Sunitinib + Bortezomib; first compound 0.2 µM) | relative viability (Sunitinib + Bortezomib; first compound 0.6325 µM) | relative viability (Sunitinib + Bortezomib; first compound 2 µM) | relative viability (Sunitinib + Pictilisib; first compound 0.02 µM) | relative viability (Sunitinib + Pictilisib; first compound 0.2 µM) | relative viability (Sunitinib + Pictilisib; first compound 2 µM) | relative viability (Sunitinib + Foretinib; first compound 0.02 µM) | relative viability (Sunitinib + Foretinib; first compound 0.06325 µM) | relative viability (Sunitinib + Foretinib; first compound 0.2 µM) | relative viability (Sunitinib + Foretinib; first compound 0.6325 µM) | relative viability (Sunitinib + Foretinib; first compound 2 µM) | relative viability (Sunitinib + Palbociclib; first compound 0.02 µM) | relative viability (Sunitinib + Palbociclib; first compound 0.06325 µM) | relative viability (Sunitinib + Palbociclib; first compound 0.2 µM) | relative viability (Sunitinib + Palbociclib; first compound 0.6325 µM) | relative viability (Sunitinib + Palbociclib; first compound 2 µM) | relative viability (Sunitinib + Pictilisib; first compound 0.06325 µM) | relative viability (Sunitinib + Pictilisib; first compound 0.6325 µM)
HCC-78 | 0.508 | 0.554 | 0.518 | 0.464 | 0.494 | 0.206 | 0.227 | 0.246 | 0.527 | 0.588 | 0.525 | 0.545 | 0.613 | 0.486 | 0.504 | 0.498 | 0.472 | 0.526 |  | 
HCC-366 | 0.98 | 1.05 | 1.04 | 1.15 | 0.989 | 0.0687 | 0.128 | 0.137 | 0.864 | 0.908 | 0.919 | 0.827 | 0.871 | 0.342 | 0.393 | 0.652 | 0.413 | 0.409 | 0.181 | 0.175
HCC-827 | 1.05 | 1.15 | 1.04 |  | 1.12 | 1.01 | 1.11 | 1.13 | 1.05 | 0.958 | 1.04 | 1.03 | 1.07 | 0.487 | 0.506 | 0.542 | 0.478 | 0.534 | 1.09 | 1.11
HOP-62 | 0.798 | 0.83 | 0.947 | 0.871 | 1.13 | 0.66 | 0.745 | 0.724 | 0.923 | 1.21 | 1.2 | 1.22 | 1.18 | 0.381 | 0.485 | 0.496 | 0.427 | 0.533 | 1.08 | 0.696
IA-LM | 0.831 | 0.85 | 0.868 | 1.12 | 1.18 | 0.419 | 0.358 | 0.402 | 1.12 | 1.32 | 1.25 | 1.14 | 1.19 |  |  |  |  |  | 0.395 | 0.331
LC-2-ad | 0.883 | 1.04 | 1.05 | 1.07 | 0.932 | 0.51 | 0.444 | 0.28 | 0.868 | 0.949 | 0.952 | 0.99 | 0.861 | 0.491 | 0.481 | 0.593 | 0.48 | 0.42 | 0.461 | 0.285
LK-2 |  |  |  |  |  | 0.505 | 0.558 | 0.465 | 1.1 | 1.56 | 1.72 | 1.42 | 1.24 | 0.563 |  | 0.681 | 0.586 | 0.642 | 0.543 | 0.573
NCI-H358 |  |  |  |  |  | 0.369 | 0.34 | 0.261 | 0.716 | 0.774 | 0.8 | 0.748 | 0.527 | 0.138 | 0.158 | 0.138 | 0.132 | 0.125 | 0.38 | 0.359
NCI-H522 |  |  |  |  |  |  |  |  |  |  |  |  |  | 0.961 | 0.924 | 1.11 | 1.03 | 0.909 |  | 
NCI-H596 | 0.996 | 1.16 | 0.999 | 1.08 | 1.33 | 0.376 | 0.428 | 0.434 | 0.688 | 0.949 | 0.779 | 0.849 | 0.649 |  |  |  |  |  | 0.392 | 0.394
NCI-H1299 | 0.999 | 1.06 | 1.01 |  | 1 | 0.748 | 0.862 | 0.558 | 1.07 | 1.15 | 1.14 | 1.08 | 1.12 |  |  |  |  |  | 0.654 | 
NCI-H1395 |  |  |  |  |  | 0.609 | 0.662 | 0.594 | 0.955 | 0.996 | 1.05 | 1 | 1.14 | 0.638 | 0.625 | 0.649 | 0.745 | 0.619 | 0.646 | 0.614
NCI-H1563 | 0.752 | 0.918 | 0.897 | 0.906 | 0.771 | 0.637 | 0.695 | 0.643 | 0.822 | 1.05 | 0.999 | 1.03 | 0.993 |  |  |  |  |  | 0.641 | 0.653
NCI-H1648 |  |  |  |  |  |  |  |  |  |  |  |  |  | 0.257 | 0.328 | 0.239 | 0.279 | 0.308 |  | 
NCI-H1703 | 0.249 | 0.218 | 0.176 | 0.19 | 0.176 | 0.215 | 0.245 | 0.204 | 0.333 | 0.25 | 0.284 | 0.306 | 0.254 |  |  |  |  |  | 0.208 | 0.224
NCI-H1792 | 0.93 | 0.924 | 1.09 | 0.99 | 0.981 | 0.242 | 0.243 | 0.265 |  |  |  |  |  | 0.627 | 0.661 | 0.763 | 0.612 | 0.734 | 0.291 | 0.242
NCI-H1793 |  |  |  |  |  |  | 0.361 | 0.297 | 0.649 | 0.675 | 0.753 | 0.723 | 0.593 |  | 0.307 | 0.311 | 0.299 | 0.319 | 0.296 | 0.241
NCI-H1944 |  |  |  |  |  | 0.315 | 0.412 | 0.374 | 0.738 | 1 | 0.962 | 0.944 | 0.863 | 0.337 | 0.317 | 0.378 | 0.346 | 0.339 | 0.379 | 0.337
NCI-H2170 |  |  |  |  |  | 0.307 | 0.311 | 0.236 | 0.987 | 1.01 | 1.05 | 1.01 | 0.843 | 0.392 | 0.376 | 0.422 | 0.379 | 0.421 | 0.311 | 0.303
NCI-H2342 |  |  |  |  |  |  |  |  | 0.901 | 1.17 | 1.15 | 1.18 | 1.16 | 0.446 | 0.541 | 0.566 | 0.549 | 0.579 |  | 
SK-MES-1 |  |  |  |  |  | 0.352 | 0.344 | 0.359 | 0.932 | 0.932 | 1.03 | 1.09 | 0.894 | 0.309 | 0.322 | 0.363 | 0.397 | 0.388 | 0.382 | 0.316
SW 900 |  |  |  |  |  |  |  |  | 0.834 | 0.934 | 0.865 | 0.966 | 0.834 | 0.517 | 0.592 | 0.576 | 0.587 | 0.604 |  | 
